Patent US11180474B2 (BRISTOL-MYERS SQUIBB COMPANY, priority 2016, dated 2021)

Target: T1, human TLR9 (Homo sapiens, UniProt Q9NR96)
T1 construct: host or cells: HEK-Blue cells
T1 sequence (Q9NR96 26-1032): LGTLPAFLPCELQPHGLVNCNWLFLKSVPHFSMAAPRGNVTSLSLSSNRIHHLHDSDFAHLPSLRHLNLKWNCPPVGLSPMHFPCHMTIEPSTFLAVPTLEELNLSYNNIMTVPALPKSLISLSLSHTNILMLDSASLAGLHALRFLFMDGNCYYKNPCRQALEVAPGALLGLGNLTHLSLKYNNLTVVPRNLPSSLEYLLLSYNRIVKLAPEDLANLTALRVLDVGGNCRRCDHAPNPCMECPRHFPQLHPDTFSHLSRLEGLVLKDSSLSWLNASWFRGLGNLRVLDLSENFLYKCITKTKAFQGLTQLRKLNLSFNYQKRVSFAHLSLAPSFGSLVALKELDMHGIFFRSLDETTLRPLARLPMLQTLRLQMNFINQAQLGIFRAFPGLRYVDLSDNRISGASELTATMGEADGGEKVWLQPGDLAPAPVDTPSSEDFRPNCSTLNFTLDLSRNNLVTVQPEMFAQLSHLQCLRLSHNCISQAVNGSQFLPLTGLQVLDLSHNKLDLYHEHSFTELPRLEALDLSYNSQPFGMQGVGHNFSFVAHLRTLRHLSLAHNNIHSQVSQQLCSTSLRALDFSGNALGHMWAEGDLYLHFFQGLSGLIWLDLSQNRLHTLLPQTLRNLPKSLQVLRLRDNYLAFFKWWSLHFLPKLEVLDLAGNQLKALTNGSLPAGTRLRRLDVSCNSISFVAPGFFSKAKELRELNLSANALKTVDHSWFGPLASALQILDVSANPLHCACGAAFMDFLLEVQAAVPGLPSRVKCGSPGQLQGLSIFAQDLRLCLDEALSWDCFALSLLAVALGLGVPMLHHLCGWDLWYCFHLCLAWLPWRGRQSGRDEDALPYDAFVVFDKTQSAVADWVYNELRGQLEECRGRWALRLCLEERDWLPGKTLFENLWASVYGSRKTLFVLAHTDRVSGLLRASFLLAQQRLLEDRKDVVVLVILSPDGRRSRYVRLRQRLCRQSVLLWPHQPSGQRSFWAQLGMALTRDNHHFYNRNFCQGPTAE
Assay: TLR9 inhibition reporter assay (HEK-Blue cells, SEAP reporter, ODN2006 stimulation)
Assay type: cell-based
Conditions: HEK-Blue cells overexpressing human TLR9, ODN2006 5 nM
In short: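 Human TLR7/8/9 HEK-Blue reporter lines; dose range 0.05 nM–50 μM; 30 min RT preincubation; stimulus gardiquimod 7.5 μM / R848 15.9 μM / ODN2006 5 nM respectively; 22 h, 37 °C; SEAP detected colorimetrically.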

IC50 [µM]	Compound
4.23	COc1ccc(-c2[nH]c3ccc(C4CCN(CC(=O)NCCNC(C)=O)CC4)cc3c2CC(F)(F)F)cc1OC [Example 379, N-(2-acetamidoethyl)-2-(4-(2-(3,4-dimethoxyphenyl)-3-(2,2,2-trifluoroethyl)-1H-indol-5-yl)piperidin-1-yl)acetamide]
14.4	CCC(CC)NC(=O)CN1CCC(c2ccc3[nH]c(-c4ccc(OC)c(OC)c4)c(CC(F)(F)F)c3c2)CC1 [Example 378, 2-(4-(2-(3,4-dimethoxyphenyl)-3-(2,2,2-trifluoroethyl)-1H-indol-5-yl)piperidin-1-yl)-N-(pentan-3-yl)acetamide]
13.5	COc1ccc(-c2[nH]c3ccc(C4CCN(C(=O)CNC[C@@H](O)CO)CC4)cc3c2C)cc1OC [Example 405, (R)-2-((2,3-dihydroxypropyl)amino)-1-(4-(2-(3,4-dimethoxyphenyl)-3-methyl-1H-indol-5-yl)piperidin-1-yl)ethan-1-one]
5.29	CNC(=O)CN1CCC(c2ccc3[nH]c(-c4ccc(OC)c(OC)c4)c(CC(F)F)c3c2)CC1 [Example 401, 2-(4-(3-(2,2-difluoroethyl)-2-(3,4-dimethoxyphenyl)-1H-indol-5-yl)piperidin-1-yl)-N-methylacetamide]
3.96	COc1ccc(-c2[nH]c3ccc(C4CCN(CC(=O)N(C)C)CC4)cc3c2CC(F)F)cc1OC [Example 400, 2-(4-(3-(2,2-difluoroethyl)-2-(3,4-dimethoxyphenyl)-1H-indol-5-yl)piperidin-1-yl)-N,N-dimethylacetamide]
0.66	COc1ccc(-c2[nH]c3ccc(C4CCN(CC(=O)NCCCn5ccnc5)CC4)cc3c2CC(F)(F)F)cc1OC [Example 383, N-(3-(1H-imidazol-1-yl)propyl)-2-(4-(2-(3,4-dimethoxyphenyl)-3-(2,2,2-trifluoroethyl)-1H-indol-5-yl)piperidin-1-yl)acetamide]
2.76	COc1ccc(-c2[nH]c3ccc(C4CCN(C(=O)CN[C@H](C)C(C)C)CC4)cc3c2C2CCOCC2)cc1OC [Example 394, (R)-1-(4-(2-(3,4-dimethoxyphenyl)-3-(tetrahydro-2H-pyran-4-yl)-1H-indol-5-yl)piperidin-1-yl)-2-((3-methylbutan-2-yl)amino)ethan-1-one]
8.64	CCN(CC)C(=O)C1CCCN(CC(=O)N2CCC(c3ccc4[nH]c(-c5ccc(OC)c(OC)c5)c(C)c4c3)CC2)C1 (stereo not shown) [Example 404, 1-(2-(4-(2-(3,4-dimethoxyphenyl)-3-methyl-1H-indol-5-yl)piperidin-1-yl)-2-oxoethyl)-N,N-diethylpiperidine-3-carboxamide]

Second part, the compound before the results:

Compound	IC50 [µM]
COc1ccc(-c2[nH]c3ccc(C4CCN(C(=O)CCN5CCCCC5)CC4)cc3c2CC(F)(F)F)cc1OC [Example 330, 1-(4-(2-(3,4-dimethoxyphenyl)-3-(2,2,2-trifluoroethyl)-1H-indol-5-yl)piperidin-1-yl)-3-(piperidin-1-yl)propan-1-one]	1.61
COc1ccc(-c2[nH]c3ccc(C4CCN(C(=O)Cc5cnccn5)CC4)cc3c2CC(F)(F)F)cc1OC [Example 342, 1-(4-(2-(3,4-dimethoxyphenyl)-3-(2,2,2-trifluoroethyl)-1H-indol-5-yl)piperidin-1-yl)-2-(pyrazin-2-yl)ethan-1-one]	26.4
COc1ccc(-c2[nH]c3ccc(C4CCN(C(=O)C[C@H](C)O)CC4)cc3c2CC(F)(F)F)cc1OC [Example 352, (S)-1-(4-(2-(3,4-dimethoxyphenyl)-3-(2,2,2-trifluoroethyl)-1H-indol-5-yl)piperidin-1-yl)-3-hydroxybutan-1-one]	28.9
COc1ccc(-c2[nH]c3ccc(C4CCN(C(=O)C[C@@H](C)O)CC4)cc3c2CC(F)(F)F)cc1OC [Example 353, (R)-1-(4-(2-(3,4-dimethoxyphenyl)-3-(2,2,2-trifluoroethyl)-1H-indol-5-yl)piperidin-1-yl)-3-hydroxybutan-1-one]	40
COc1ccc(-c2[nH]c3ccc(C4CCN(CC(=O)N5CC[C@H](N(C)C)C5)CC4)cc3c2CC(F)(F)F)cc1OC [Example 374, (S)-2-(4-(2-(3,4-dimethoxyphenyl)-3-(2,2,2-trifluoroethyl)-1H-indol-5-yl)piperidin-1-yl)-1-(3-(dimethylamino)pyrrolidin-1-yl) ethan-1-one]	0.252
COc1ccc(-c2[nH]c3ccc(C4CCN(C(=O)Cc5c[nH]cn5)CC4)cc3c2CC(F)(F)F)cc1OC [Example 334, 1-(4-(2-(3,4-dimethoxyphenyl)-3-(2,2,2-trifluoroethyl)-1H-indol-5-yl)piperidin-1-yl)-2-(1H-imidazol-4-yl)ethan-1-one]	7.77
COc1ccc(-c2[nH]c3ccc(C4CCN(C(=O)C5CCN(C(C)=O)CC5)CC4)cc3c2CC(F)(F)F)cc1OC [Example 345, 1-(4-(4-(2-(3,4-dimethoxyphenyl)-3-(2,2,2-trifluoroethyl)-1H-indol-5-yl)piperidine-1-carbonyl)piperidin-1-yl)ethan-1-one]	25.2
COc1ccc(-c2[nH]c3ccc(C4CCNCC4)cc3c2CC(F)(F)F)cc1OC [Example 329, 2-(3,4-dimethoxyphenyl)-5-(piperidin-4-yl)-3-(2,2,2-trifluoroethyl)-1H-indole]	1.16
COc1ccc(-c2[nH]c3ccc(C4CCN(C(=O)CN(C)C)CC4)cc3c2CC(F)(F)F)cc1OC [Example 354, 1-(4-(2-(3,4-dimethoxyphenyl)-3-(2,2,2-trifluoroethyl)-1H-indol-5-yl)piperidin-1-yl)-2-(dimethylamino)ethan-1-one]	2.15
COc1ccc(-c2[nH]c3ccc(C4CCN(C(=O)CCC(N)=O)CC4)cc3c2CC(F)(F)F)cc1OC [Example 333, 4-(4-(2-(3,4-dimethoxyphenyl)-3-(2,2,2-trifluoroethyl)-1H-indol-5-yl)piperidin-1-yl)-4-oxobutanamide]	≥ 50
COc1ccc(-c2[nH]c3ccc(C4CCN(CC(=O)N5CCC(N6CCN(C)CC6)CC5)CC4)cc3c2CC(F)(F)F)cc1OC [Example 363, 2-(4-(2-(3,4-dimethoxyphenyl)-3-(2,2,2-trifluoroethyl)-1H-indol-5-yl)piperidin-1-yl)-1-(4-(4-methylpiperazin-1-yl)piperidin-1-yl) ethan-1-one]	0.268
COc1ccc(-c2[nH]c3ccc(C4CCN(CC(=O)N5CCC(N(C)C)CC5)CC4)cc3c2CC(F)(F)F)cc1OC [Example 364, 2-(4-(2-(3,4-dimethoxyphenyl)-3-(2,2,2-trifluoroethyl)-1H-indol-5-yl)piperidin-1-yl)-1-(4-(dimethylamino)piperidin-1-yl)ethan-1-one]	0.563
COc1ccc(-c2[nH]c3ccc(C4CCN(CC(=O)N(C)CCCN(C)C)CC4)cc3c2CC(F)(F)F)cc1OC [Example 365, 2-(4-(2-(3,4-dimethoxyphenyl)-3-(2,2,2-trifluoroethyl)-1H-indol-5-yl)piperidin-1-yl)-N-(3-(dimethylamino)propyl)-N-methylacetamide]	0.19
COc1ccc(-c2[nH]c3ccc(C4CCN(C(=O)CCn5cccc5)CC4)cc3c2CC(F)(F)F)cc1OC [Example 344, 1-(4-(2-(3,4-dimethoxyphenyl)-3-(2,2,2-trifluoroethyl)-1H-indol-5-yl)piperidin-1-yl)-3-(1H-pyrrol-1-yl)propan-1-one]	≥ 50
COc1ccc(-c2[nH]c3ccc(C4CCN(CC(=O)N5CCN(c6ccncc6)CC5)CC4)cc3c2CC(F)(F)F)cc1OC [Example 366, 2-(4-(2-(3,4-dimethoxyphenyl)-3-(2,2,2-trifluoroethyl)-1H-indol-5-yl)piperidin-1-yl)-1-(4-(pyridin-4-yl)piperazin-1-yl) ethan-1-one]	0.141
COc1ccc(-c2[nH]c3ccc(C4CCN(CC(=O)NCCCN5CCCC5=O)CC4)cc3c2CC(F)(F)F)cc1OC [Example 376, 2-(4-(2-(3,4-dimethoxyphenyl)-3-(2,2,2-trifluoroethyl)-1H-indol-5-yl)piperidin-1-yl)-N-(3-(2-oxopyrrolidin-1-yl)propyl)acetamide]	2.9
COc1ccc(-c2[nH]c3ccc(C4CCN(C(=O)CCc5cccnc5)CC4)cc3c2CC(F)(F)F)cc1OC [Example 348, 1-(4-(2-(3,4-dimethoxyphenyl)-3-(2,2,2-trifluoroethyl)-1H-indol-5-yl)piperidin-1-yl)-3-(pyridin-3-yl) propan-1-one]	15.3
